Measurements reported in patent US20240368127A1, “HSD17B13 INHIBITORS AND USES THEREOF” (FL2022-001, Inc., priority 2021, published 2024).

biological target: T1, Recombinant human HSD17B13 enzyme (Homo sapiens, UniProt Q7Z5P4); assay: HSD17b13 NAD(P)H-Glo biochemical assay; details: 50 μM estradiol, 1 mM NAD+, 37° C. for 3 hours; read-out: HSD17β13 IC50
T1 sequence (Q7Z5P4 20-300): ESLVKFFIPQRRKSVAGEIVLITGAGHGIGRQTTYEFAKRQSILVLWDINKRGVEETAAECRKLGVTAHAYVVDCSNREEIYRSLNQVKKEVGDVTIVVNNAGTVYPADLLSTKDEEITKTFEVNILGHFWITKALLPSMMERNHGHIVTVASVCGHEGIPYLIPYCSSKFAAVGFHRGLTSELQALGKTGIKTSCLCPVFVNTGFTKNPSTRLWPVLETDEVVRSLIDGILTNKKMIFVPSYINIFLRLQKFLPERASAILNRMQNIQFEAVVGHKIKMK
Description: Example B-1: HSD17b13 NAD (P) H-Glo Biochemical Assay
Recombinant human HSD17B13 enzyme. Substrate: estradiol (Sigma β-Estradiol E8875), 100 mM in DMSO. Cofactor: NAD+ Grade I free acid (Sigma 10127965001), 20 mM in H2O. Assay buffer final concentration: 20 mM Tris pH7.4 with 0.002% Tween-20 and 0.02% BSA. Assay performed in 384 well solid bottom plate (Corning 3570). Enzymatic activity detected by NAD (P) H-Glo™ Detection System (Promega G9062).
Inhibitor compounds were serially diluted in DMSO and then further diluted in assay buffer to a 10× concentration consisting of 1% DMSO.
HSD17b13 enzyme was diluted in 1× assay buffer to the desired enzyme concentration based on the specific activity of the enzyme lot. 20 μL of diluted enzyme was added to each well along with 2.5 μL of 10× inhibitor solution. Assay plate was incubated at RT for 20 minutes, and then 2.5 μL of a 10× substrate/cofactor mix was added to each well for a final concentration of 50 μM estradiol and 1 mM NAD+. Assay plate was incubated at 37° C. for 3 hours. NAD (P) H-Glo™ Detection System reagents were prepared according to manufacturer's specifications, and 25 μL was added to each well. After incubating for 1 hour at RT, luminescence was measured.

| IC50 [nM] | SMILES |
| --- | --- |
| ≤ 100 | Cn1nc(-c2cc(C(F)(F)F)c(F)c(O)c2F)c2cnc(N3CCOC[C@@H]3Cc3ccccc3)nc21 [Compound 5.09, (S)-3-(6-(3-Benzylmorpholino)-1-methyl-1H-pyrazolo[3,4-d]pyrimidin-3-yl)-2,6-difluoro-5-(trifluoromethyl)phenol] |
| ≤ 100 | Cn1nc(-c2cc(C(F)(F)F)c(F)c(O)c2F)c2cnc(N3CCN(S(C)(=O)=O)[C@@H](Cc4ccccc4)C3)nc21 [Compound 5.14, (S)-3-(6-(3-Benzyl-4-(methylsulfonyl)piperazin-1-yl)-1-methyl-1H-pyrazolo[3,4-d]pyrimidin-3-yl)-2,6-difluoro-5-(trifluoromethyl)phenol] |
| ≤ 100 | Cn1nc(-c2cc(C(F)(F)F)c(F)c(O)c2F)c2cnc(N3CCN(S(C)(=O)=O)[C@H](Cc4ccccc4)C3)nc21 [Compound 5.15, (R)-3-(6-(3-Benzyl-4-(methylsulfonyl)piperazin-1-yl)-1-methyl-1H-pyrazolo[3,4-d]pyrimidin-3-yl)-2,6-difluoro-5-(trifluoromethyl)phenol] |
| ≤ 100 | Cn1nc(-c2cc(C(F)(F)F)c(F)c(O)c2F)c2cnc(N3CCC[C@H]3Cc3ccccc3)nc21 [Compound 5.17, (S)-3-(6-(2-Benzylpyrrolidin-1-yl)-1-methyl-1H-pyrazolo[3,4-d]pyrimidin-3-yl)-2,6-difluoro-5-(trifluoromethyl)phenol] |
| ≤ 100 | CS(=O)(=O)N1CCN(c2ncc3c(-c4cc(C(F)(F)F)c(F)c(O)c4F)n[nH]c3n2)[C@H](Cc2ccccc2)C1 [Compound 5.18, (R)-3-(6-(2-Benzyl-4-(methylsulfonyl)piperazin-1-yl)-1H-pyrazolo[3,4-d]pyrimidin-3-yl)-2,6-difluoro-5-(trifluoromethyl)phenol] |
| ≤ 100 | Oc1c(F)c(-c2n[nH]c3nc(N4CCOC[C@H]4Cc4ccccc4)ncc23)cc(C(F)(F)F)c1F [Compound 5.20, (R)-3-(6-(3-Benzylmorpholino)-1H-pyrazolo[3,4-d]pyrimidin-3-yl)-2,6-difluoro-5-(trifluoromethyl)phenol] |
| ≤ 100 | Cn1nc(-c2cc(C(F)(F)F)c(F)c(O)c2F)c2cnc(N3CCOC[C@H]3Cc3ccc(F)cc3)nc21 [Compound 5.23, (R)-2,6-Difluoro-3-(6-(3-(4-fluorobenzyl)morpholino)-1-methyl-1H-pyrazolo[3,4-d]pyrimidin-3-yl)-5-(trifluoromethyl)phenol] |
| ≤ 100 | Cn1nc(-c2cc(C(F)(F)F)c(F)c(O)c2F)c2cnc(N3CCOC[C@H]3Cc3ccccc3F)nc21 [Compound 5.25, (R)-2,6-Difluoro-3-(6-(3-(2-fluorobenzyl)morpholino)-1-methyl-1H-pyrazolo[3,4-d]pyrimidin-3-yl)-5-(trifluoromethyl)phenol] |
| ≤ 100 | COc1ccc(C[C@@H]2COCCN2c2ncc3c(-c4cc(C(F)(F)F)c(F)c(O)c4F)nn(C)c3n2)cc1 [Compound 5.28, (R)-2,6-Difluoro-3-(6-(3-(4-methoxybenzyl)morpholino)-1-methyl-1H-pyrazolo[3,4-d]pyrimidin-3-yl)-5-(trifluoromethyl)phenol] |

Continued, compound first:

| SMILES | IC50 [nM] |
| --- | --- |
| Cn1nc(-c2cc(C(F)(F)F)c(F)c(O)c2F)c2cnc(N3CCC(O)(Cn4cccn4)CC3)nc21 [Compound 5.04, 4-((1H-Pyrazol-1-yl)methyl)-1-(3-(2,4-difluoro-3-hydroxy-5-(trifluoromethyl)phenyl)-1-methyl-1H-pyrazolo[3,4-d]pyrimidin-6-yl)piperidin-4-ol] | ≤ 100 |
| Cn1nc(-c2cc(C(F)(F)F)c(F)c(O)c2F)c2cnc(N3CCC(O)(CN4CCOCC4)CC3)nc21 [Compound 5.05, 1-(3-(2,4-Difluoro-3-hydroxy-5-(trifluoromethyl)phenyl)-1-methyl-1H-pyrazolo[3,4-d]pyrimidin-6-yl)-4-(morpholinomethyl)piperidin-4-ol] | 100 to 1000 |
| Cn1nc(-c2cc(C(F)(F)F)c(F)c(O)c2F)c2cnc(N3CCN(S(C)(=O)=O)C[C@@H]3Cc3ccccc3)nc21 [Compound 5.06, (S)-3-(6-(2-Benzyl-4-(methylsulfonyl)piperazin-1-yl)-1-methyl-1H-pyrazolo[3,4-d]pyrimidin-3-yl)-2,6-difluoro-5-(trifluoromethyl)phenol] | ≤ 100 |
| CN1CCN(c2ncc3c(-c4cc(C(F)(F)F)c(F)c(O)c4F)nn(C)c3n2)CC1Cc1ccccc1 (centres unmarked) [Compound 5.07, 3-(6-(3-Benzyl-4-methylpiperazin-1-yl)-1-methyl-1H-pyrazolo[3,4-d]pyrimidin-3-yl)-2,6-difluoro-5-(trifluoromethyl)phenol] | ≤ 100 |
| Cn1nc(-c2cc(C(F)(F)F)c(F)c(O)c2F)c2cnc(N3CCOC[C@H]3Cc3ccccc3)nc21 [Compound 5.08, (R)-3-(6-(3-Benzylmorpholino)-1-methyl-1H-pyrazolo[3,4-d]pyrimidin-3-yl)-2,6-difluoro-5-(trifluoromethyl)phenol] | ≤ 100 |
| Cn1nc(-c2cc(C(F)(F)F)c(F)c(O)c2F)c2cnc(N3CCOCC3CC3CCC3)nc21 (centres unmarked) [Compound 5.10, 3-(6-(3-(Cyclobutylmethyl)morpholino)-1-methyl-1H-pyrazolo[3,4-d]pyrimidin-3-yl)-2,6-difluoro-5-(trifluoromethyl)phenol] | ≤ 100 |
| Cn1nc(-c2cc(C(F)(F)F)c(F)c(O)c2F)c2cnc(N3CCCCC3Cc3ccccn3)nc21 (centres unmarked) [Compound 5.11, 2,6-Difluoro-3-(1-methyl-6-(2-(pyridin-2-ylmethyl)piperidin-1-yl)-1H-pyrazolo[3,4-d]pyrimidin-3-yl)-5-(trifluoromethyl)phenol] | ≤ 100 |
| CN1CCN(c2ncc3c(-c4cc(C(F)(F)F)c(F)c(O)c4F)nn(C)c3n2)C(Cc2ccccc2)C1 (centres unmarked) [Compound 5.12, 3-(6-(2-Benzyl-4-methylpiperazin-1-yl)-1-methyl-1H-pyrazolo[3,4-d]pyrimidin-3-yl)-2,6-difluoro-5-(trifluoromethyl)phenol] | ≤ 100 |
| Cn1nc(-c2cc(C(F)(F)F)c(F)c(O)c2F)c2cnc(N3CCNC(=O)C3Cc3ccccc3)nc21 (centres unmarked) [Compound 5.13, 3-Benzyl-4-(3-(2,4-difluoro-3-hydroxy-5-(trifluoromethyl)phenyl)-1-methyl-1H-pyrazolo[3,4-d]pyrimidin-6-yl)piperazin-2-one] | ≤ 100 |
| Cn1nc(-c2cc(C(F)(F)F)c(F)c(O)c2F)c2cnc(N3CCCC[C@H]3Cc3ccccc3)nc21 [Compound 5.16, (S)-3-(6-(2-Benzylpiperidin-1-yl)-1-methyl-1H-pyrazolo[3,4-d]pyrimidin-3-yl)-2,6-difluoro-5-(trifluoromethyl)phenol] | ≤ 100 |
| Cn1nc(-c2cc(C(F)(F)F)c(F)c(O)c2F)c2cnc(N3CCC3Cc3ccccc3)nc21 (centres unmarked) [Compound 5.19, 3-(6-(2-Benzylazetidin-1-yl)-1-methyl-1H-pyrazolo[3,4-d]pyrimidin-3-yl)-2,6-difluoro-5-(trifluoromethyl)phenol] | ≤ 100 |
| Cc1ccc(C[C@@H]2COCCN2c2ncc3c(-c4cc(C(F)(F)F)c(F)c(O)c4F)nn(C)c3n2)cc1 [Compound 5.21, (R)-2,6-Difluoro-3-(1-methyl-6-(3-(4-methylbenzyl)morpholino)-1H-pyrazolo[3,4-d]pyrimidin-3-yl)-5-(trifluoromethyl)phenol] | ≤ 100 |
| CS(=O)(=O)N1CCN(c2ncc3c(-c4cc(C(F)(F)F)c(F)c(O)c4F)n[nH]c3n2)C[C@@H]1Cc1ccccc1 [Compound 5.22, (S)-3-(6-(3-Benzyl-4-(methylsulfonyl)piperazin-1-yl)-1H-pyrazolo[3,4-d]pyrimidin-3-yl)-2,6-difluoro-5-(trifluoromethyl)phenol] | ≤ 100 |
| Cn1nc(-c2cc(C(F)(F)F)c(F)c(O)c2F)c2cnc(N3CCOC[C@H]3Cc3cccc(F)c3)nc21 [Compound 5.24, (R)-2,6-Difluoro-3-(6-(3-(3-fluorobenzyl)morpholino)-1-methyl-1H-pyrazolo[3,4-d]pyrimidin-3-yl)-5-(trifluoromethyl)phenol] | ≤ 100 |
| CN1CCN(c2ncc3c(-c4cc(C(F)(F)F)c(F)c(O)c4F)nn(C)c3n2)[C@H](Cc2ccccc2)C1 [Compound 5.26, (R)-3-(6-(2-Benzyl-4-methylpiperazin-1-yl)-1-methyl-1H-pyrazolo[3,4-d]pyrimidin-3-yl)-2,6-difluoro-5-(trifluoromethyl)phenol] | ≤ 100 |
| Cn1nc(-c2cc(C(F)(F)F)c(F)c(O)c2F)c2cnc(NC3(Cc4ccccc4)CCC3)nc21 [Compound 5.27, 3-(6-((1-Benzylcyclobutyl)amino)-1-methyl-1H-pyrazolo[3,4-d]pyrimidin-3-yl)-2,6-difluoro-5-(trifluoromethyl)phenol] | ≤ 100 |
| Cn1nc(-c2cc(C(F)(F)F)c(F)c(O)c2F)c2cnc(N3CCOCC3CN3CCCC3)nc21 (centres unmarked) [Compound 5.29, 2,6-Difluoro-3-(1-methyl-6-(3-(pyrrolidin-1-ylmethyl)morpholino)-1H-pyrazolo[3,4-d]pyrimidin-3-yl)-5-(trifluoromethyl)phenol] | 100 to 1000 |
